Results reported in patent US4153686A, “Process for the preparation of glucoproteins as well as the use thereof” (priority 1976, dated 1979).
≈ marks a conversion by molar mass, not a printed value. Where “and” joins values, the source holds several entries; their conditions need not be identical. Identical values can stand only once. Like-named read-outs stand apart in the source and are kept apart here.

Assays:
aerobacter aeroges = test: Bactericidal MIC-values, 50 strains (Table 2); format: cell-based; conditions: of 50 strains; MIC steps 2000 to 0.0002 γ/ml, counts in descending MIC order
[1] = tested on: ps. aeruginosa NCTC 10662; test: Bactericidal activity in vitro, cylinder test (Table 1); format: cell-based; conditions: Pseudomonas aeruginosa, NCTC10662; 18 h at 37° C., average of three individual measurements; read-out: Bactericidal action (MIC)
[2] = tested on: strept. pyogenes ATCC 8668; test: as above; format: cell-based; conditions: Streptococcus pyogenes, ATCC8668; 18 h at 37° C., average of three individual measurements; read-out: Bactericidal action (MIC)
[3] = tested on: stapyloc. aur. ATCC 11522; test: as above; format: cell-based; conditions: 18 h at 37° C., average of three individual measurements; read-out: Bactericidal action (MIC)
[4] = tested on: staphyl. aur. b, Penicillinase-forming substance; test: Bactericidal MIC-values, 50 strains (Table 2); format: cell-based; conditions: of 50 strains; MIC steps 2000 to 0.0002 γ/ml, counts in descending MIC order
[5] = tested on: strains which form Penicillinase; test: Bactericidal activity against penicillinase-forming strains (statement); format: cell-based; conditions: ampicillin alone
[6] = tested on: proteus mirabilis b, Penicillinase-forming substance; test: Bactericidal MIC-values, 50 strains (Table 2); format: cell-based; conditions: of 50 strains; MIC steps 2000 to 0.0002 γ/ml, counts in descending MIC order
[7] = tested on: strept. faecalis ATCC 19433; test: Bactericidal activity in vitro, cylinder test (Table 1); format: cell-based; conditions: Enterococcus faecalis, ATCC19433; 18 h at 37° C., average of three individual measurements; read-out: Bactericidal action (MIC)
[8] = tested on: staphyloc. aur. NCTC 6571; test: as above; format: cell-based; conditions: 18 h at 37° C., average of three individual measurements; read-out: Bactericidal action (MIC)
h. influencae ATCC 19418 = test: as above; format: cell-based; conditions: 18 h at 37° C., average of three individual measurements; read-out: Bactericidal action (MIC)
[9] = tested on: strept. pneumon. ATCC 6301; test: as above; format: cell-based; conditions: 18 h at 37° C., average of three individual measurements; read-out: Bactericidal action (MIC)
[10] = tested on: stapyloc. aur. ATCC 6538 P (Penicillinase forming substance); test: as above; format: cell-based; conditions: 18 h at 37° C., average of three individual measurements
fungi = test: Fungicidal activity (statement); format: cell-based; conditions: ampicillin alone
Experimental: The MIC-values for the fungicidal activity of the combination product were determined according to the provisions of the American Soc. of Clinical Microbiology, Manual of Clinical Microbiology, 2nd Edition (Washington, D.C.).

[11] = tested on: escherichia coli NCTC 10418; test: Bactericidal activity in vitro, cylinder test (Table 1); format: cell-based; conditions: NCTC10418, 18 h at 37° C., average of three individual measurements, read-out: Bactericidal action (MIC)
[12] = tested on: strept. faecalis ATCC 8043; test: as above; format: cell-based; conditions: Enterococcus faecalis, ATCC8043; 18 h at 37° C., average of three individual measurements; read-out: Bactericidal action (MIC)
[13] = tested on: strept. pneumon. ATCC 6302; test: as above; format: cell-based; conditions: 18 h at 37° C., average of three individual measurements; read-out: Bactericidal action (MIC)
[14] = tested on: strept. faecalis ATCC 10541; test: as above; format: cell-based; conditions: Enterococcus faecalis, ATCC10541; 18 h at 37° C., average of three individual measurements; read-out: Bactericidal action (MIC)
psuedomonas aeruginosa = test: Bactericidal MIC-values, 50 strains (Table 2); format: cell-based; conditions: of 50 strains; MIC steps 2000 to 0.0002 γ/ml, counts in descending MIC order
[15] = 0.5 mg Dexam 3 × daily perorally, after 5 days
[16] = Clinical test of Norfenefrin and Norfenefrin + glucoprotein, blood pressure (Table 6); format: in vivo, patients; conditions: 14th day, 3.0 mg Norfenefrin once daily
[17] = Clinical test of phenylbutazone and phenylbutazone + glucoprotein, BSG (Table 5); format: in vivo, patients; conditions: 1.0 g phenylbutazone 3 × daily orally, after 8 days
[18] = three hours after medication, individual patient

CC1(C)S[C@@H]2[C@H](NC(=O)[C@H](N)c3ccccc3)C(=O)N2[C@H]1C(=O)O [Ampicillin, D-(2-amino-2-phenylacetamido)-3,3-dimethyl-7-oxo-4-thia-1-azabicyclo-[3,2,0]-heptane-2-carboxylic acid]
Bactericidal MIC-values: number of strains at each MIC step (aerobacter aeroges): 50
MIC [1]: 240 µg/mL (≈ 687 µM)
MIC [2]: 0.03 µg/mL (≈ 0.0859 µM)
MIC [3]: 0.06 µg/mL (≈ 0.172 µM)
Bactericidal MIC-values: number of strains at each MIC step [4]: 50
action against Penicillinase-forming strains [5]: completely ineffective
Bactericidal MIC-values: number of strains at each MIC step [6]: 50
MIC [7]: 2 µg/mL (≈ 5.72 µM)
MIC [8]: 0.06 µg/mL (≈ 0.172 µM)
MIC (h. influencae ATCC 19418): 0.25 µg/mL (≈ 0.715 µM)
MIC [9]: 0.06 µg/mL (≈ 0.172 µM)
Bactericidal action (MIC) [10]: resistant
fungicidal activity (fungi): no fungicidal activity which can be evaluated in practice
MIC [11]: 8 µg/mL (≈ 22.9 µM)
MIC [12]: 2 µg/mL (≈ 5.72 µM)
MIC [13]: 0.06 µg/mL (≈ 0.172 µM)
MIC [14]: 1 µg/mL (≈ 2.86 µM)
Bactericidal MIC-values: number of strains at each MIC step (psuedomonas aeruginosa): 50

C[C@@H]1C[C@H]2[C@@H]3CCC4=CC(=O)C=C[C@]4(C)[C@@]3(F)[C@@H](O)C[C@]2(C)[C@@]1(O)C(=O)CO [Dexam, dexamethasone]
ASLO, average ([15]; average of 10 patients): 220 i.E.
BSG after 1 h., average ([15]; average of 10 patients): 23.5
BSG after 2 h., average ([15]; average of 10 patients): 38.8
ASLO ([15]; individual patient): 200 i.E. and 100 i.E. and 300 i.E.
BSG after 1 h. ([15]; individual patient): 25 and 20 and 30 and 24 and 22
BSG after 2 h. ([15]; individual patient): 30 and 35 and 40 and 45 and 50 and 42 and 38 and 36 and 34

NCC(O)c1cccc(O)c1 (centres unmarked) [Norfenefrin]
diastolic blood pressure [16, 18]: 70 and 75 and 80
systolic blood pressure [16, 18]: 120 and 125 and 130
diastolic blood pressure, average ([16]; average of 10 patients): 76.5
systolic blood pressure, average ([16]; average of 10 patients): 126.0

CCCCC1C(=O)N(c2ccccc2)N(c2ccccc2)C1=O [phenylbutazone]
BSG after 1 h., average ([17]; average of 10 patients): 33.2
BSG after 2 h., average ([17]; average of 10 patients): 57.9
BSG after 1 h. ([17]; individual patient): 38 and 40 and 35 and 30 and 28 and 32 and 25
BSG after 2 h. ([17]; individual patient): 62 and 60 and 50 and 45 and 58
